{
  "source": "patent US20260226006A1",
  "about": "“INDOLE COMPOUND, PREPARATION METHOD THEREFOR AND USE THEREOF” (SUZHOU MERNA THERAPEUTICS CO. LTD, priority 2023, published 2026)",
  "key": {"HaCat cells": {"test_system": "HaCat cells", "experiment": "m6A methylation level of human HaCat keratinocytes, EpiQuik m6A RNA methylation quantification kit (Example 20)", "assay_type": "cell-based", "conditions": "for m6A fold change relative to control group 1 / fold induction at 0.05 µM: HaCat cells, 24 hours; for m6A methylation level of human HaCat keratinocytes / fold induction at 0.05 µM: 50 nM drug alone; for fold induction at 0.05 µM: Homo sapiens, read-out: m6A fold change relative to control group 1", "procedure,_shortened": "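HaCat keratinocytes in DMEM/10% FBS given 50 nM sorafenib, capecitabine, docetaxel or osimertinib, then 400 nM test compound or nicotinamide, and cultured 24 hours at 37° C. Total RNA m6A quantified by EpiQuik ELISA at 450 nm against a standard curve, expressed as percentage of RNA input.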"}, "paw plantar skin of rats": {"test_system": "paw plantar skin of rats", "experiment": "Rat models with hand-foot skin reaction, topical ointment (Example 22)", "assay_type": "in vivo, SD rats", "conditions": "for Incidence rate / Incidence rate (successful modeling rate for hand-foot skin reaction): 30 days; for Incidence rate (successful modeling rate for hand-foot skin reaction): modeling drug alone by gavage once daily, no ointment, SD rats", "experimental": "After adaptive feeding for one week, SD rats (with a body weight of approximately 200 g) were randomly divided into groups according to the body weight, with 12 rats in each group. Modeling drugs (including sorafenib, erlotinib, afatinib, and osimertinib) were respectively dissolved in a solution containing 5% of DMSO, 45% of PEG400, and 50% of H2O, and the modeling drugs were diluted to required concentrations and then administered once daily by gavage at doses shown in Table 3. After administration by gavage for 1 hour, 0.05 g of ointments containing different mass proportions of test compounds were evenly applied to left paws of the rats, a blank matrix ointment was applied to right paws of the rats to serve as a self-control, and no ointment was applied to the rats in a blank control group. After drug application, four limbs were continuously immobilized for 2 hours, then wiped with clean water to remove the residual drugs, removed from immobilization, and restored to free movement. The modeling drugs, the blank matrix ointment, and the ointments containing the test compounds were all administered once daily. After continuous administration for 30 days, the rats were euthanized, and paw plantar skin tissues were collected, fixed in 10% neutral formalin, […]. The ointments for the test compounds were prepared by mixing the compounds, white beeswax, white petrolatum, and light liquid paraffin in specific ratios (weight ratios of 3 ointments were respectively 1:18:58:23, 3:18:57:22, and 10:20:40:30). The blank matrix ointment was prepared by mixing white beeswax, white petrolatum, and light liquid paraffin in a specific ratio (weight ratio of 18:60:22).\nTissue staining: After dewaxing and rehydration, the paw plantar skin tissue sections of the above rats were stained in a hematoxylin solution for several minutes, cleaned, and placed in 1% acid alcohol for soaking until the sections faded to light blue-red. After cleaning with running water for 5 minutes, the sections were stained with eosin for 2-3 minutes, cleaned to remove excess dyes, dehydrated, then permeabilized by adding xylene for several minutes, and sealed and fixed with a neutral resin. The stratum corneum was observed under an optical microscope, and the thickness of the epidermal stratum corneum was measured using Dmetrix software.\nImmunohistochemical staining: After dewaxing and hydration, the paw plantar skin tissue sections of the above rats were incubated with 3% H2O2 at room temperature for 30 minutes and blocked with 10% goat serum for 30 minutes after antigen retrieval. A KRT1 antibody (Abcam, ab93652) and a Loricrin antibody (Abcam, ab183646) were added dropwise, the sections were incubated overnight at 4° C., and an HRP secondary antibody (ZSGB-BIO, PV-6001) and a DAB kit (ZSG-BIO, ZLI9017) were added for color development. The sections were re-stained with hematoxylin, cleaned, and sealed and fixed with a neutral resin, and the expression amounts of KRT1 and Loricrin were observed under an optical microscope.\nAn incidence rate calculation method involves a proportion of animals in each group meeting the above criteria for determining successful modeling, that is, incidence rate=(number of successfully modeled rats/total number of rats in the group)*100%. […]"}, "[1]": {"conditions": "successfully modeled rats, modeling drug"}},
  "data": [
    {"smiles": "CN1CC[C@H](C(N)=O)c2[nH]c3ccc(Cl)cc3c21", "note": "[Compound 8b, (S)-8-chloro-1-methyl-2,3,4,5-tetrahydropyrido[3,2-b]indole-4-carboxamide]", "values": [
      {"measurement": "abnormal increase in the RNA m6A level of human keratinocytes caused by chemotherapeutic drugs and multikinase inhibitors", "setting": "HaCat cells; 400 nM compound after 50 nM drug", "value": "effectively inhibit"},
      {"measurement": "m6A fold change relative to control group 1", "setting": "HaCat cells; 50 nM capecitabine + 400 nM test compound", "value": 1.0},
      {"measurement": "m6A fold change relative to control group 1", "setting": "HaCat cells; 50 nM docetaxel + 400 nM test compound", "value": 1.2},
      {"measurement": "m6A fold change relative to control group 1", "setting": "HaCat cells; 50 nM osimertinib + 400 nM test compound", "value": 1.0},
      {"measurement": "m6A fold change relative to control group 1", "setting": "HaCat cells; 50 nM sorafenib + 400 nM test compound", "value": 1.0},
      {"measurement": "Incidence rate", "setting": "paw plantar skin of rats; afatinib 50 mg/kg, 1% compound ointment on left paw, left paw", "value": "1/12 (8%)"},
      {"measurement": "Incidence rate", "setting": "paw plantar skin of rats; afatinib 50 mg/kg, 1% compound ointment on left paw, right paw (blank matrix ointment)", "value": "9/12 (75%)"},
      {"measurement": "Incidence rate", "setting": "paw plantar skin of rats; afatinib 50 mg/kg, 3% compound ointment on left paw, left paw", "value": "1/12 (8%)"},
      {"measurement": "Incidence rate", "setting": "paw plantar skin of rats; afatinib 50 mg/kg, 3% compound ointment on left paw, right paw (blank matrix ointment)", "value": "4/12 (33%)"},
      {"measurement": "Incidence rate", "setting": "paw plantar skin of rats; afatinib 50 mg/kg, 10% compound ointment on left paw, left paw", "value": "0/12 (0%)"},
      {"measurement": "Incidence rate", "setting": "paw plantar skin of rats; afatinib 50 mg/kg, 10% compound ointment on left paw, right paw (blank matrix ointment)", "value": "1/12 (8%)"},
      {"measurement": "incidence rate of hand-foot skin reaction at a drug application site", "setting": "paw plantar skin of rats; compounds at a mass content of 1% in ointment", "value": "significantly decrease"},
      {"measurement": "incidence rate of hand-foot skin reaction in all paws of the rats", "setting": "paw plantar skin of rats; compounds at mass contents of 3% and 10% in ointment", "value": "significantly decrease"},
      {"measurement": "Incidence rate", "setting": "paw plantar skin of rats; erlotinib 70 mg/kg, 1% compound ointment on left paw, left paw", "value": "2/12 (17%)"},
      {"measurement": "Incidence rate", "setting": "paw plantar skin of rats; erlotinib 70 mg/kg, 1% compound ointment on left paw, right paw (blank matrix ointment)", "value": "10/12 (83%)"},
      {"measurement": "Incidence rate", "setting": "paw plantar skin of rats; erlotinib 70 mg/kg, 3% compound ointment on left paw, left paw", "value": "1/12 (8%)"},
      {"measurement": "Incidence rate", "setting": "paw plantar skin of rats; erlotinib 70 mg/kg, 3% compound ointment on left paw, right paw (blank matrix ointment)", "value": "4/12 (33%)"},
      {"measurement": "Incidence rate", "setting": "paw plantar skin of rats; erlotinib 70 mg/kg, 10% compound ointment on left paw, left paw", "value": "0/12 (0%)"},
      {"measurement": "Incidence rate", "setting": "paw plantar skin of rats; erlotinib 70 mg/kg, 10% compound ointment on left paw, right paw (blank matrix ointment)", "value": "0/12 (0%)"},
      {"measurement": "Incidence rate", "setting": "paw plantar skin of rats; osimertinib 60 mg/kg, 1% compound ointment on left paw, left paw", "value": "1/12 (8%)"},
      {"measurement": "Incidence rate", "setting": "paw plantar skin of rats; osimertinib 60 mg/kg, 1% compound ointment on left paw, right paw (blank matrix ointment)", "value": "9/12 (75%)"},
      {"measurement": "Incidence rate", "setting": "paw plantar skin of rats; osimertinib 60 mg/kg, 3% compound ointment on left paw, left paw", "value": "1/12 (8%)"},
      {"measurement": "Incidence rate", "setting": "paw plantar skin of rats; osimertinib 60 mg/kg, 3% compound ointment on left paw, right paw (blank matrix ointment)", "value": "3/12 (25%)"},
      {"measurement": "Incidence rate", "setting": "paw plantar skin of rats; osimertinib 60 mg/kg, 10% compound ointment on left paw, left paw", "value": "0/12 (0%)"},
      {"measurement": "Incidence rate", "setting": "paw plantar skin of rats; osimertinib 60 mg/kg, 10% compound ointment on left paw, right paw (blank matrix ointment)", "value": "0/12 (0%)"},
      {"measurement": "formation of blisters, inflammatory cell infiltration in the dermis and skin congestion (pathological scoring)", "setting": "paw plantar skin of rats; paw plantar skin of modeled rats, topical ointment", "value": "effectively improve"},
      {"measurement": "Incidence rate", "setting": "paw plantar skin of rats; sorafenib 100 mg/kg, 1% compound ointment on left paw, left paw", "value": "1/12 (8%)"},
      {"measurement": "Incidence rate", "setting": "paw plantar skin of rats; sorafenib 100 mg/kg, 1% compound ointment on left paw, right paw (blank matrix ointment)", "value": "8/12 (67%)"},
      {"measurement": "Incidence rate", "setting": "paw plantar skin of rats; sorafenib 100 mg/kg, 3% compound ointment on left paw, left paw", "value": "1/12 (8%)"},
      {"measurement": "Incidence rate", "setting": "paw plantar skin of rats; sorafenib 100 mg/kg, 3% compound ointment on left paw, right paw (blank matrix ointment)", "value": "3/12 (25%)"},
      {"measurement": "Incidence rate", "setting": "paw plantar skin of rats; sorafenib 100 mg/kg, 10% compound ointment on left paw, left paw", "value": "0/12 (0%)"},
      {"measurement": "Incidence rate", "setting": "paw plantar skin of rats; sorafenib 100 mg/kg, 10% compound ointment on left paw, right paw (blank matrix ointment)", "value": "1/12 (8%)"},
      {"measurement": "differentiation of keratinocytes both in vitro and in vivo", "setting": "paw plantar skin of rats; summary of Examples 21 and 22", "value": "effectively inhibit"},
      {"measurement": "stratum corneum thickness of the paw plantar skin of the modeled rats", "setting": "paw plantar skin of rats; topical ointment, modeled rats", "value": "effectively decrease"}
    ]},
    {"smiles": "C=CC(=O)Nc1cc(Nc2nccc(-c3cn(C)c4ccccc34)n2)c(OC)cc1N(C)CCN(C)C", "note": "[Osimertinib, osimertinib, reference compound]", "values": [
      {"measurement": "m6A methylation level of human HaCat keratinocytes", "setting": "HaCat cells", "value": "significantly increase"},
      {"measurement": "fold induction at 0.05 µM", "setting": "HaCat cells", "value": 4.8},
      {"measurement": "KRT1 and Loricrin in tissues (immunohistochemical staining)", "setting": "paw plantar skin of rats; rat, in vivo", "value": "significantly increased"},
      {"measurement": "stratum corneum thickness of the paw plantar skin", "setting": "paw plantar skin of rats; rat, in vivo", "value": "significantly higher than that of normal rats"}
    ]},
    {"smiles": "CNC(=O)c1cc(Oc2ccc(NC(=O)Nc3ccc(Cl)c(C(F)(F)F)c3)cc2)ccn1", "note": "[Sorafenib, sorafenib, reference compound]", "values": [
      {"measurement": "m6A methylation level of human HaCat keratinocytes", "setting": "HaCat cells", "value": "significantly increase"},
      {"measurement": "fold induction at 0.05 µM", "setting": "HaCat cells", "value": 4.5},
      {"measurement": "Incidence rate (successful modeling rate for hand-foot skin reaction)", "setting": "paw plantar skin of rats", "value": "9/12 (75%)"},
      {"measurement": "Incidence rate (successful modeling rate for hand-foot skin reaction)", "setting": "paw plantar skin of rats; listed as sorafenib", "value": 75, "unit": "%"},
      {"measurement": "KRT1 and Loricrin in tissues (immunohistochemical staining)", "setting": "paw plantar skin of rats; [1]", "value": "significantly increased"},
      {"measurement": "stratum corneum thickness of the paw plantar skin", "setting": "paw plantar skin of rats; [1]", "value": "significantly higher than that of normal rats"}
    ]}
  ]
}
